# From article PMC6723402, “Secondary Metabolites with α-Glucosidase Inhibitory Activity from the Mangrove Fungus Mycosphaerella sp. SYSU-DZG01” (Marine Drugs, 2019)
# pEC50, pIC50: −log10 of the molar value.
# How the values were obtained:
# α-glucosidase = α-glucosidase inhibitory activity assay (p-nitrophenyl glycoside substrate, 96-well, 405 nm); format: biochemical; details: PBS pH 7.0, 37 °C
# Method: The α-glucosidase inhibitory activity was assayed according to the reported method. The inhibitory activity of α-glucosidase was tested in the 96-well plated with […] PBS (KH2PO4-K2HPO4, pH 7.0) buffer solution each. […] The assay was conducted in a 100 μL reaction system containing 20 μL enzyme stock solution, 69 μL PBS buffers and 1 μL of DMSO or testing materials. After 10 min incubation at 37 °C, 10 μL of the substrate was added and incubated for 20 min at 37 °C. The Absorbance which measured by a BIO-RAD (iMark) microplate reader at 405 nm was used to calculate the inhibitory activity according to the equation:η (%) = [(B − S)/B] × 100%(1) η (%) is the percentage of inhibition; B is the assay medium with DMSO; S is the assay medium with compound. The results of IC50 values were calculated by the nonlinear regression analysis.
# [1] = DPPH· radical scavenging (antioxidant) assay; details: 30 min; for Antioxidant % Inhibition (100 μM): DPPH· scavenging at 100 μM; for pEC50: DPPH· scavenging
# Method: The DPPH· scavenging was assayed according to the reported method. The DPPH radical scavenging test was performed in 96-well microplates. Testing materials (compounds 1–11) were added to 150 μL (0.16 mmol/L) DPPH solution in MeOH at a range of 50 μL solutions of different concentrations (2, 25, 50 and 100 μM). After 30 min, absorbance at 517 nm was measured and the percentage of activity was calculated. Ascorbic acid was used as a positive control.
pIC50 (α-glucosidase),pEC50 [1],melting point,Compound,Antioxidant % Inhibition (100 μM) [1]
< 4.30,4.23,–,"1,3-dihydro-5-methoxy-7-methylisobenzofuran [Compound 6]",65%
–,4.65,–,"O=C1O[C@H]([C@@H](O)CO)C(O)=C1O [Ascorbic acid, ascorbic acid, reference compound]",92%
< 4.30,4.07,95.9 to 97.8 °C,"COC(=O)c1c(C)c(O)c(O)c(O)c1C=O [Compound 4, 2-methoxycarbonyl-4,5,6-trihydroxy-3-methyl-benzaldehyde]",57%
< 4.30,–,–,"Cc1c(O)c(O)c(O)c2c1COC2=O [Compound 5, epicoccone B]",<50%
< 4.30,–,89.8 to 91.9 °C,"CC(O)C1OCc2c(O)cccc21 [Compound 3, (R)-9-((R)-10-hydroxyethyl)-7,9-dihydroisobenzofuran-1-ol]",<50%
4.57,4.79,–,"Cc1c(O)c(O)c(O)c(C=O)c1-c1cc2c(C=O)c(C)c(O)c(O)c2o1 [Compound 8, epicoccolide B]",89%
< 4.30,–,–,"Cc1c(O)cc(O)c(C(=O)OC[C@@H](O)[C@H](O)[C@H](O)CO)c1C [Compound 7, paeciloside A]",<50%
< 4.30,–,–,"CC1=C(C)C2(C)C(=O)C(O)(C1=O)C1(C)C(=O)C2(O)C(=O)C(C)=C1C [Compound 2, dibefurin B]",<50%

Compound,pIC50 (α-glucosidase),pEC50 [1],melting point,Antioxidant % Inhibition (100 μM) [1]
"CC1=CC2C=C(C)C(C)C3C(CC(C)C)NC(=O)C23C(=O)C2C3OC(c4c(C)c(O)c(O)c(O)c43)C2C(=O)CCC1 (stereo not drawn) [Compound 1, asperchalasine I]",4.77,4.11,–,56%
